Key:
Type in all cases: cell-based
human neutrophils = test: Ca2+ mobilization in human neutrophils
mouse neutrophils = test: Ca2+ mobilization in mouse neutrophils; conditions: Neutrophil, read-out: EC50, Ca2+ mobilization, Mouse PMN
FPR1 = molecular target: T1, FPR1 (Homo sapiens, UniProt P21462); test: Ca2+ mobilization in FPR1-transfected HL-60 cells
T1 sequence (P21462 1-350): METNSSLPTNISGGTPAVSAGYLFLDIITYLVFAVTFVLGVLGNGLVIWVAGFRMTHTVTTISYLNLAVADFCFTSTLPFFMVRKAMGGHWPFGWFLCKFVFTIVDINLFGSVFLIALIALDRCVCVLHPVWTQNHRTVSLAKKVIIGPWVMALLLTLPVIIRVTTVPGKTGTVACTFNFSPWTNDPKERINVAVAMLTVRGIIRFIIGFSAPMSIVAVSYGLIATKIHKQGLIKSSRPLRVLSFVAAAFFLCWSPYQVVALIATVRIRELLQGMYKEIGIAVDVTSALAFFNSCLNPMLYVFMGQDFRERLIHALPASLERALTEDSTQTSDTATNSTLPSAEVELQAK

FPR2 = molecular target: T2, FPR2 (Homo sapiens, UniProt P25090); test: Ca2+ mobilization in FPR2-transfected HL-60 cells
T2 sequence (P25090 1-351): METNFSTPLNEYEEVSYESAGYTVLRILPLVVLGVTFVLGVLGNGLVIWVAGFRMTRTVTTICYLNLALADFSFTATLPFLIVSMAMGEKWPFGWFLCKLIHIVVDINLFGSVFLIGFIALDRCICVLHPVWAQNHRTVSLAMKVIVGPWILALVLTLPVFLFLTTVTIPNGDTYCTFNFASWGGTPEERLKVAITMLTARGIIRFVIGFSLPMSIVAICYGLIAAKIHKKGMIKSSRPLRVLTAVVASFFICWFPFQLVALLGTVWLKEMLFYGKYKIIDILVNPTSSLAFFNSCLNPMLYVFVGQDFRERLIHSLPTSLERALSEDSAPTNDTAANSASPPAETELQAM

Structure (SMILES): COc1ccc(NC(=O)N[C@@H](Cc2c[nH]c3ccccc23)C(=O)NCC2(c3ccccc3)CCCCC2)cc1 [(S)-9c, (S)-3-(1H-Indol-3-yl)-2-[3-(4-methoxyphenyl)ureido]-N-[(1-phenylcyclohexyl)methyl]propanamide]
- Ca2+ mobilization in human neutrophils (in words) (human neutrophils): not able to induce Ca^2+ mobilization
- EC50 (mouse neutrophils): 2500 ± 610 nM

Structure (SMILES): COc1ccc(NC(=O)N[C@H](Cc2c[nH]c3ccccc23)C(=O)NCC2(c3ccc(OC)cn3)CCCCC2)cc1 [(R)-9a, (R)-3-(1H-Indol-3-yl)-2-[3-(4-methoxyphenyl)ureido]-N-[[1-(5-methoxy-2-pyridinyl)cyclohexyl]methyl]propanamide]
- EC50 (mouse neutrophils): 4900 ± 1400 nM

Structure (SMILES): COc1ccc(NC(=O)N[C@@H](Cc2c[nH]c3ccccc23)C(=O)NCC2(c3ccccn3)CCCCC2)cc1 [(S)-9e, (S)-3-(1H-Indol-3-yl)-2-[3-(4-methoxyphenyl)ureido]-N-[[1-(2-pyridinyl)cyclohexyl]methyl]propanamide]
- Ca2+ mobilization in FPR1-HL60 cells (in words) (FPR1): stimulated Ca^2+ mobilization
- EC50 (mouse neutrophils): 2800 ± 640 nM

Structure (SMILES): COc1ccc(NC(=O)N[C@@H](Cc2c[nH]c3ccccc23)C(=O)NCC2(c3ccnc(F)c3)CCCCC2)cc1 [(S)-9b]
- Ca2+ mobilization in FPR1-HL60 cells (in words) (FPR1): unable to stimulate Ca^2+ mobilization
- activation of FPR2 in FPR2-HL60 cells and in human neutrophils (in words) (FPR2): active
- EC50 (mouse neutrophils): 1700 ± 440 nM

Structure (SMILES): COc1ccc(NC(=O)N[C@@H](Cc2c[nH]c3ccccc23)C(=O)NCC2(c3ccc(OC)cn3)CCCCC2)cc1 [(S)-9a, (S )-3-(1H-indol-3-yl)-2-[3-(4-methoxyphenyl)ureido]-N -[[1-(5-methoxy-2-pyridinyl)cyclohexyl]methyl]propanamide]
- Ca2+ mobilization in FPR1-HL60 cells (in words) (FPR1): stimulated Ca^2+ mobilization
- difference in potency between enantiomers in activation of human neutrophils (human neutrophils; (S)-9a vs (R)-9a): > 14 fold
- Efficacy, Ca2+ mobilization, Human PMN (w/o probenecid) (human neutrophils; without probenecid, normalized to 5 nM fMLF = 100%): 100%
- EC50 (mouse neutrophils): 240 ± 70 nM

Structure (SMILES): COc1ccc(NC(=O)N[C@H](Cc2c[nH]c3ccccc23)C(=O)NCC2(c3cccnc3)CCCCC2)cc1 [(R)-9d, (R)-3-(1H-Indol-3-yl)-2-[3-(4-methoxyphenyl)ureido]-N-[[1-(3-pyridinyl)cyclohexyl]methyl]propanamide]
- Ca2+ mobilization in human neutrophils (in words) (human neutrophils): not able to induce Ca^2+ mobilization
- EC50 (mouse neutrophils): 2100 ± 580 nM

Structure (SMILES): COc1ccc(NC(=O)N[C@@H](Cc2c[nH]c3ccccc23)C(=O)NCC2(c3cccnc3)CCCCC2)cc1 [(S)-9d, (S)-3-(1H-Indol-3-yl)-2-[3-(4-methoxyphenyl)ureido]-N-[[1-(3-pyridinyl)cyclohexyl]methyl]propanamide]
- Ca2+ mobilization in FPR1-HL60 cells (in words) (FPR1): unable to stimulate Ca^2+ mobilization
- activation of FPR2 in FPR2-HL60 cells and in human neutrophils (in words) (FPR2): able to activate FPR2
- EC50 (mouse neutrophils): 3900 ± 1500 nM

Structure (SMILES): COc1ccc(NC(=O)N[C@H](Cc2c[nH]c3ccccc23)C(=O)NCC2(c3ccccc3)CCCCC2)cc1 [(R)-9c, (R)-3-(1H-Indol-3-yl)-2-[3-(4-methoxyphenyl)ureido]-N-[(1-phenylcyclohexyl)methyl]propanamide]
- Ca2+ mobilization in FPR1-HL60 cells (in words) (FPR1): unable to stimulate Ca^2+ mobilization
- Ca2+ mobilization in human neutrophils (in words) (human neutrophils): only in the presence of probenecid
- EC50 (mouse neutrophils): 3800 ± 1300 nM

Structure (SMILES): COc1ccc(NC(=O)N[C@H](Cc2c[nH]c3ccccc23)C(=O)NCC2(c3ccccn3)CCCCC2)cc1 [(R)-9e, (R)-3-(1H-Indol-3-yl)-2-[3-(4-methoxyphenyl)ureido]-N-[[1-(2-pyridinyl)cyclohexyl]methyl]propanamide]
- EC50 (mouse neutrophils): 1000 ± 270 nM

Structure (SMILES): COc1ccc(NC(=O)N[C@H](Cc2c[nH]c3ccccc23)C(=O)NCC2(c3ccnc(F)c3)CCCCC2)cc1 [(R)-9b]
- activation of FPR2 in FPR2-HL60 cells and in human neutrophils (in words) (FPR2): inactive
- Ca2+ mobilization in human neutrophils (in words) (human neutrophils): not able to induce Ca^2+ mobilization
- EC50 (mouse neutrophils): 2300 ± 730 nM

Structure (SMILES): COc1ccc(NC(=O)N[C@@H](Cc2c[nH]c3ccccc23)C(=O)NCC2(c3ccc(F)cc3)CCCCC2)cc1 [(S)-9f, (S)-N-[[1-(4-Fluorophenyl)cyclohexyl]methyl]-3-(1H-indol-3-yl)-2-[3-(4-methoxyphenyl)ureido]propanamide]
- Ca2+ mobilization in FPR1-HL60 cells (in words) (FPR1): unable to stimulate Ca^2+ mobilization
- activation of FPR2 in FPR2-HL60 cells and in human neutrophils (in words) (FPR2): active
- Ca2+ mobilization in human neutrophils (in words) (human neutrophils): only in the presence of probenecid
- EC50 (mouse neutrophils): 2300 ± 350 nM

Structure (SMILES): COc1ccc(NC(=O)N[C@H](Cc2c[nH]c3ccccc23)C(=O)NCC2(c3ccc(F)cc3)CCCCC2)cc1 [(R)-9f, (R)-N-[[1-(4-Fluorophenyl)cyclohexyl]methyl]-3-(1H-indol-3-yl)-2-[3-(4-methoxyphenyl)ureido]propanamide]
- activation of FPR2 in FPR2-HL60 cells and in human neutrophils (in words) (FPR2): inactive
- Ca2+ mobilization in human neutrophils (in words) (human neutrophils): not able to induce Ca^2+ mobilization
- EC50 (mouse neutrophils): 2500 ± 420 nM

— publication PMC4466095 (Bioorganic & medicinal chemistry, 2014)
